Data set [1] has as its system indomethacin induced ulcer. Description: antiulcer activity: suppression of indomethacin induced ulcer in mice. As to conditions: for inhibition in vivo at 100 mg/kg: Mus musculus, po, read-out: Suppression rate of indomethacin induced ulcer. The format is in vivo, ddY series male mice. The protocol:
The antiulcer activity of the compounds of this invention was determined by the following method. Four-week-old ddY series male mice were used as the test animals after they were fasted for 24 hours. Each test compound suspended in a 1% gum arabic solution was administerd to the stomach of each mouse at a dose of 100 mg/kg, and then, after 30 minutes, 20 mg/kg of indomethacin was administered orally. Four hours after the administration of indomethacin, the stomach of mouse was extirpated and the length of ulcers was measured. Then, the ulcer index was determined by the total sum of the scores as calculated in Table 1. | TABLE 1 |Length of ulcer | 0.5 mm< 1 mm< 2 mm< 3 mm< |Score 0.5 1 2 3 The mean ulcer index of each group was calculated and the suppression rate against the control group in terms of difference in the mean ulcer index was determined.

Data set [2] in a line: acute toxicity, LD50 (P.O.). The note with it: in vivo, po.
A further data set in a line: reversion test. The format is cell-based.
The conditions of data set [3]: background, cited from earlier work.
The mark [4] stands for this setting: 100 mg/kg, p.o., ddY male mice, indomethacin 20 mg/kg orally 30 minutes later, ulcers measured 4 hours after indomethacin.

SMILES strings stand for the structures. Like-named read-outs stand apart in the source and are kept apart here. Some results are limits rather than exact numbers.

`O=c1c2ccccc2nc(SCc2nc3ccccc3[nH]2)n1-c1ccccc1` [2-(2-Benzimidazolylmethylthio)-3-phenyl-4(3H)-quinazolinone]: in data set [1] (setting [4]), the inhibition in vivo at 100 mg/kg was 81%.

In the case of `CCN(CC)CCSc1nc2ccccc2c(=O)n1-c1ccccc1` [2-(2-Diethylaminoethylthio)-3-phenyl-4(3H)-quinazolinone], the inhibition in vivo at 100 mg/kg in data set [1] (setting [4]) turned out to be 45%.

For `COc1ccc(-n2c(SCc3nccc(OC)c3C)nc3ccc(C)cc3c2=O)cc1` [2-[(4-Methoxy-3-methylpyridin-2-yl)methylthio]-3-(4-methoxyphenyl)-6-methyl-4(3H)-quinazolinone], in data set [1] (setting [4]), the inhibition in vivo at 100 mg/kg is 49%.

As for `COc1cc(CSc2nc3ccc(C)cc3c(=O)n2-c2ccccc2)ncc1C` [2[(4-Methoxy-5-methylpyridin-2-yl)methylthio]-6-methyl-3-phenyl-4(3H)-quinazolinone], in data set [1] (setting [4]), the inhibition in vivo at 100 mg/kg stood at 44%.

As to `CCn1c(SCc2ccccn2)nc2ccccc2c1=O` [3-Ethyl-2-(2-pyridylmethylthio)-4(3H)-quinazolinone], the LD50 in data set [2] is over 3000 mg/kg. Moreover, the inhibition in vivo at 100 mg/kg in data set [1] (setting [4]) was determined as 96%. Moreover, the reversion test result in the data set “reversion test” was “negative”.

As for `O=c1c2ccccc2nc(SCc2ccccn2)n1CCc1ccccc1` [3-Phenethyl-2-(2-pyridylmethylthio)-4(3H)-quinazolinone], the inhibition in vivo at 100 mg/kg in data set [1] (setting [4]) came to 60%.

As to `O=c1c2ccccc2nc(SCc2cccnc2)n1-c1ccccc1` [3-Phenyl-2-(3-pyridylmethylthio)-4(3H)-quinazolinone], in data set [1] (setting [4]), the “Suppression rate of indomethacin induced ulcer” value is given as 63.

As to `Cc1ccc2nc(SCc3ccccn3)n(-c3ccccc3)c(=O)c2c1` [6-Methyl-3-phenyl-2-(2-pyridylmethylthio)-4(3H)-quinazolinone], the inhibition in vivo at 100 mg/kg in data set [1] (setting [4]) was 38%.

In the case of `CN/C(=N/CCSCc1nc[nH]c1C)NC#N` [Cimetidine], in data set [3] (known), the side effects result is reported as “gynecomatism”. Further, the “recurrence of ulcer after suspension of administration” value in data set [3] (reported) is on record as “numbers of cases are reported about recurrence of ulcer”. In addition, in data set [1] (4 h), the inhibition in vivo at 100 mg/kg worked out at 40%.

What is called LD50 is the dose at which mortality reaches 50%. A lower LD50 goes with greater toxicity.

(Values after patent US5008266A, “4(3H)-quinazolinone derivatives and pharmaceutical compositions” (Nisshin Flour Milling Co., Ltd., priority 1987, dated 1991).)
